Test results reported in patent US20140127231A1, “p38 MAPK Pathway Inhibitors as Female-Specific Therapeutics” (UNIVERSITY OF VERMONT, priority 2012, published 2014).
Entries after “also recorded” stand apart in the source; their conditions may differ.

Key:
[1] = system: Draining lymph node (DLN) cells; assay: Draining lymph node cells of treated EAE mice restimulated with MOG35-55, cytokine ELISA; format: in vivo, C57BL/6J (B6) mice; conditions: DLN cells collected D20, restimulated with MOG35-55 for 3 days
Source text: (§1) Female B6 mice were immunized for EAE as described for FIG. 1 and treated daily with carrier or SB. On D30 post-immunization, CNS (brain and spinal cord) cells were harvested and analyzed by intracellular staining and flow cytometry. Relative percentages (out of CD4+TCRβ+ population) of IL-17+, IFN-γ+, or IL-17+ IFN-γ+ cells (FIG. 2A), and percentages of CD4+TCRβ+ cells (out of CD45+ cells) (FIG. 2B). DLN cells were collected on D20 and restimulated with MOG35-55 for 3 days. Production of IFN-γ+(FIG. 2C) or IL-17 (FIG. 2D) was assessed by ELISA.
EAE was induced in female C57BL/6J mice as described previously (Noubade et al., 2007, J Clin Invest., 117(11):3507-3518). […]
(§2) To examine the mechanism of EAE prevention by SB, the TH1 and TH17 effector subsets were analyzed in treated female mice. […] On D30 post-immunization, CNS (brain and spinal cord) cells were harvested and analyzed by intracellular staining and flow cytometry. […] Draining lymph node (DLN) cells were collected on D20 and restimulated with MOG35-55 for 3 days, and production of IFN-γ and IL-17 was assessed by ELISA.

[2] = system: TH17 and TH1 cells in CNS-infiltrating cells; assay: CNS-infiltrating cells of treated EAE mice, intracellular cytokine staining and flow cytometry; format: in vivo, C57BL/6J (B6) mice; conditions: female B6 mice treated daily, D30 post-immunization
Source text: as §1
EAE was induced in female C57BL/6J mice as described previously (Noubade et al., 2007, J Clin Invest., 117(11):3507-3518). Mice were injected subcutaneously with an emulsion containing 200 μg of MOG35-55 peptide ([…] (SEQ ID NO: 1) and complete Freund adjuvant (CFA; Sigma-Aldrich) supplemented with 200 μg of Mycobacterium tuberculosis H37RA (Difco Laboratories) in the posterior right and left flank; 1 week later, all mice were similarly injected at 2 sites on the right and left flank anterior of the initial injection sites (2×MOG35-55+CFA). Mice received 5 mg/kg/d SB203580 dihydrochloride (Tocris) by IP injection in a total volume of 200 μL or an equal volume of carrier every day from the day of immunization.
Animals were perfused with saline and brains and spinal cords removed. A single-cell suspension was obtained and passed through a 70-μm strainer. Mononuclear cells were obtained by Percoll gradient (37%/70%) centrifugation and collected from the interphase. Cells were washed and stimulated for 4 hours with PMA/ionomycin in the presence of brefeldin A (Golgi Plug; BD Biosciences). […]
as §2

TH1-mediated passive EAE = assay: Passive EAE induced by TH1 cells; format: in vivo, mice; conditions: polarized DLN cells transferred into naïve recipients, listed as SB
Source text: FIG. 5A is a schematic that illustrates that protocol of inducing passive EAE.
Based on this and the observation that IL-17 is not absolutely required for EAE progression (Haak, S et al., 2009, J Clin Invest 119:61-69), it is possible that SB prevents EAE by inhibiting production of additional key pathogenic factors. Further, it is shown that TH1-mediated passive EAE is prevented by inhibition of p38 MAPK (FIG. 5). In these experiments, donor animals were immunized with MOG35-55, DLN cells were isolated at D10 and cultured under polarizing conditions, and cells were transferred into naïve recipients. […] As such, complementary genomic and proteomic approaches were used to identify these factors, which in the future may provide novel druggable targets for treatment of autoimmune disease. Because such approaches typically yield a large number of potential candidates, a prioritizing/“funneling” scheme was constructed to rule out irrelevant hits in screens. In particular, the sexual dimorphism in response to SB serves as a useful discriminatory tool in this regard.

SMILES: C[S+]([O-])c1ccc(-c2nc(-c3ccncc3)c(-c3ccc(F)cc3)[nH]2)cc1 (stereo not shown) [SB203580]
- IFN-γ production (ELISA) [1]: did not decrease
- IL-17 production (ELISA) [1]: specifically inhibited IL-17 production
- IFN-γ production by TH1 cells ([2]; CNS cells): did not suppress IFN-γ production
- IL-17 production by TH17 cells ([2]; CNS cells, listed as SB): inhibits IL-17 production by TH17 cells; also recorded: specifically inhibited IL-17 production; also recorded: only partially inhibits IL-17 production
- Percentage or number of infiltrating CD4+ T cells in the CNS [2]: did not decrease the percentage or number of infiltrating CD4+ T cells
- Cytokine production / inflammatory response (TH1-mediated passive EAE): decreased cytokine production; also recorded: reduces the inflammatory response
- EAE severity (TH1-mediated passive EAE): reduces EAE severity; also recorded: prevents passive EAE induced by TH1 cells
